Measurements as given in patent publication US8574608B2, “Bactericidal silver surfactant delivery into coating and polymer compositions” (Eastern Michigan Universtity, priority 2007, dated 2013).
Read-outs that look alike come from different tables or passages of the source.

Assays:
Assay in all cases: Growth on agar plates containing sodium surfactant
Type in all cases: cell-based
Staphylococcus aureus = system: Staphylococcus aureus; further: test concentration or dose not given here
Streptococcus viridans = system: Streptococcus viridans
Micrococcus luteus = system: Micrococcus luteus
Bacillus subtilis = system: Bacillus subtilis; further: test concentration or dose not given here
Streptococcus bovis = system: Streptococcus bovis
Enterococcus fecalis = system: Enterococcus fecalis; further: test concentration or dose not given here
Streptococcus agalactiae = system: Streptococcus agalactiae; further: test concentration or dose not given here
Streptococcus pyogenes = system: Streptococcus pyogenes
[1] = system: Staphylococcus epidermidis
[2] = agar plates with sodium surfactant, strain ATCC6538, replicates 1-2 or 1-3
[3] = agar plates with sodium surfactant, strain EM24/ATCC25923, replicates 1-2 or 1-3
[4] = agar plates with sodium surfactant, strain EM8, replicates 1-2 or 1-3
[5] = agar plates with sodium surfactant, strain EM17, replicates 1-2 or 1-3
[6] = agar plates with sodium surfactant, strain ATCC33, replicates 1-2 or 1-3
[7] = agar plates with sodium surfactant, strain EM27, replicates 1-2 or 1-3
[8] = agar plates with sodium surfactant, strain EM12, replicates 1-2 or 1-3
[9] = agar plates with sodium surfactant, strain EM19, first line, replicates 1-2 or 1-3
[10] = agar plates with sodium surfactant, strain EM19, second line, replicates 1-2 or 1-3
[11] = agar plates with sodium surfactant, strain EM13, replicates 1-2 or 1-3
[12] = agar plates with sodium surfactant, strain EM14, replicates 1-2 or 1-3
[13] = agar plates with sodium surfactant, strain EM3/ATCC12228, replicates 1-2 or 1-3

| SMILES | Survival: No Growth/Full Growth (Staphylococcus aureus; [2]) | Survival: No Growth/Full Growth (Staphylococcus aureus; [3]) | Survival: No Growth/Full Growth (Streptococcus viridans; [4]) | Survival: No Growth/Full Growth (Micrococcus luteus; [5]) | Survival: No Growth/Full Growth (Bacillus subtilis; [6]) | Survival: No Growth/Full Growth (Bacillus subtilis; [7]) | Survival: No Growth/Full Growth (Streptococcus bovis; [8]) | Survival: No Growth/Full Growth (Enterococcus fecalis; [9]) | Survival: No Growth/Full Growth (Enterococcus fecalis; [10]) | Survival: No Growth/Full Growth (Streptococcus agalactiae; [11]) | Survival: No Growth/Full Growth (Streptococcus pyogenes; [12]) | Survival: No Growth/Full Growth [1, 13] | other results |
| --- | --- | --- | --- | --- | --- | --- | --- | --- | --- | --- | --- | --- | --- |
| CC(C)CC(C)OC(=O)CC(C(=O)OC(C)CC(C)C)S(=O)(=O)[O-].[Na+] (stereo not drawn) [Compound S4] | − | − | + | − | − | − | − | − | + | − | − | − |  |
| CCCCC(CC)COP(=O)([O-])OCCC(CC)CCC.[Na+] (stereo not drawn) [Compound S2] | − | − | − | − | − | − | − | − | − | − | − | − |  |
| CCCCCCCCCCCCCOC(=O)CC(C(=O)OCCCCCCCCCCCCC)S(=O)(=O)[O-].[Na+] (stereo not drawn) [Compound S6] |  |  |  |  |  |  |  |  |  |  |  |  | Survival: No Growth/Full Growth (Staphylococcus aureus): +; Survival: No Growth/Full Growth (Streptococcus viridans): +; Survival: No Growth/Full Growth (Micrococcus luteus): + and −; Survival: No Growth/Full Growth (Bacillus subtilis): − and +; Survival: No Growth/Full Growth (Streptococcus bovis): −; Survival: No Growth/Full Growth (Enterococcus fecalis): +; Survival: No Growth/Full Growth (Streptococcus agalactiae): − and +; Survival: No Growth/Full Growth (Streptococcus pyogenes): −; Survival: No Growth/Full Growth [1]: + |
| CCCCC(CC)COC(=O)CC(C(=O)OCC(CC)CCCC)S(=O)(=O)[O-].[Na+] (stereo not drawn) [Compound S1] | − | − | − | − | − | − | − | − | − | − | − | − |  |
